Patent publication US6740642B2, “Macrolides with antibacterial activity” (BAsilea Parmaceutica AG, priority 2000, dated 2004)
≈ marks a conversion by molar mass, not a printed value.

Assays:
S. aureus 1086 = experiment: MIC, standard microdilution; type: cell-based, Staphylococcus aureus
Source text: (§1) The antibacterial activities of the compounds have been determined by standard microdilution technique (National Committee for Clinical Laboratory Standards. 1997. Methods for dilution antimicrobial susceptibility tests for bacteria that grow aerobically, 4th edition. Approved standard M7-A4. National Committee for Clinical Laboratory Standards, Wayne, Pa.).

S. aureus 745 = experiment: MIC, standard microdilution; type: cell-based, Staphylococcus aureus
Source text: as §1

S. aureus ATCC29213 = experiment: MIC, standard microdilution; type: cell-based, Staphylococcus aureus
Source text: as §1

E. coli ATCC25922 = experiment: MIC, standard microdilution; type: cell-based
Source text: as §1

[1] = system: P. aeruginosa ATCC27853 (+Ery. 32 μg/ml); experiment: MIC, standard microdilution; type: cell-based
Source text: as §1

St. pneumoniae 1/1 = experiment: MIC, standard microdilution; type: cell-based, Streptococcus pneumoniae
Source text: as §1

St. pneumoniae 1/4 = experiment: MIC, standard microdilution; type: cell-based, Streptococcus pneumoniae
Source text: as §1

St. pneumoniae 12288 = experiment: MIC, standard microdilution; type: cell-based, Streptococcus pneumoniae
Source text: as §1

St. pneumoniae SL199T = experiment: MIC, standard microdilution; type: cell-based, Streptococcus pneumoniae
Source text: as §1

H. influenzae 11 = experiment: MIC, agar dilution, HTM medium; type: cell-based, Haemophilus influenzae
Source text: as §1, with “biological” for “antibacterial”, “of compounds of” for “of”, “present invention against Haemophilus influenzae” for “compounds”, “agar dilution method using HTM medium” for “microdilution technique”

H. influenzae 12214 = experiment: MIC, agar dilution, HTM medium; type: cell-based, Haemophilus influenzae
Source text: as §1, with “biological” for “antibacterial”, “of compounds of” for “of”, “present invention against Haemophilus influenzae” for “compounds”, “agar dilution method using HTM medium” for “microdilution technique”

H. influenzae 1 = experiment: MIC, agar dilution, HTM medium; type: cell-based, Haemophilus influenzae
Source text: as §1, with “biological” for “antibacterial”, “of compounds of” for “of”, “present invention against Haemophilus influenzae” for “compounds”, “agar dilution method using HTM medium” for “microdilution technique”

H. influenzae 23145 = experiment: MIC, agar dilution, HTM medium; type: cell-based, Haemophilus influenzae
Source text: as §1, with “biological” for “antibacterial”, “of compounds of” for “of”, “present invention against Haemophilus influenzae” for “compounds”, “agar dilution method using HTM medium” for “microdilution technique”

H. influenzae 23369 = experiment: MIC, agar dilution, HTM medium; type: cell-based, Haemophilus influenzae
Source text: as §1, with “biological” for “antibacterial”, “of compounds of” for “of”, “present invention against Haemophilus influenzae” for “compounds”, “agar dilution method using HTM medium” for “microdilution technique”

H. influenzae 2947 = experiment: MIC, agar dilution, HTM medium; type: cell-based, Haemophilus influenzae
Source text: as §1, with “biological” for “antibacterial”, “of compounds of” for “of”, “present invention against Haemophilus influenzae” for “compounds”, “agar dilution method using HTM medium” for “microdilution technique”

H. influenzae 3201 = experiment: MIC, agar dilution, HTM medium; type: cell-based, Haemophilus influenzae
Source text: as §1, with “biological” for “antibacterial”, “of compounds of” for “of”, “present invention against Haemophilus influenzae” for “compounds”, “agar dilution method using HTM medium” for “microdilution technique”

H. influenzae 3457 = experiment: MIC, agar dilution, HTM medium; type: cell-based, Haemophilus influenzae
Source text: as §1, with “biological” for “antibacterial”, “of compounds of” for “of”, “present invention against Haemophilus influenzae” for “compounds”, “agar dilution method using HTM medium” for “microdilution technique”

H. influenzae 3640 = experiment: MIC, agar dilution, HTM medium; type: cell-based, Haemophilus influenzae
Source text: as §1, with “biological” for “antibacterial”, “of compounds of” for “of”, “present invention against Haemophilus influenzae” for “compounds”, “agar dilution method using HTM medium” for “microdilution technique”

H. influenzae 4139 = experiment: MIC, agar dilution, HTM medium; type: cell-based, Haemophilus influenzae
Source text: as §1, with “biological” for “antibacterial”, “of compounds of” for “of”, “present invention against Haemophilus influenzae” for “compounds”, “agar dilution method using HTM medium” for “microdilution technique”

H. influenzae ATCC 49247 = experiment: MIC, agar dilution, HTM medium; type: cell-based, Haemophilus influenzae
Source text: as §1, with “biological” for “antibacterial”, “of compounds of” for “of”, “present invention against Haemophilus influenzae” for “compounds”, “agar dilution method using HTM medium” for “microdilution technique”

H. influenzae ATCC 9334 = experiment: MIC, agar dilution, HTM medium; type: cell-based, Haemophilus influenzae
Source text: as §1, with “biological” for “antibacterial”, “of compounds of” for “of”, “present invention against Haemophilus influenzae” for “compounds”, “agar dilution method using HTM medium” for “microdilution technique”

H. influenzae B 1501 = experiment: MIC, agar dilution, HTM medium; type: cell-based, Haemophilus influenzae
Source text: as §1, with “biological” for “antibacterial”, “of compounds of” for “of”, “present invention against Haemophilus influenzae” for “compounds”, “agar dilution method using HTM medium” for “microdilution technique”

H. influenzae Christy = experiment: MIC, agar dilution, HTM medium; type: cell-based, Haemophilus influenzae
Source text: as §1, with “biological” for “antibacterial”, “of compounds of” for “of”, “present invention against Haemophilus influenzae” for “compounds”, “agar dilution method using HTM medium” for “microdilution technique”

H. influenzae H13 LAH = experiment: MIC, agar dilution, HTM medium; type: cell-based, Haemophilus influenzae
Source text: as §1, with “biological” for “antibacterial”, “of compounds of” for “of”, “present invention against Haemophilus influenzae” for “compounds”, “agar dilution method using HTM medium” for “microdilution technique”

H. influenzae H20 HDL = experiment: MIC, agar dilution, HTM medium; type: cell-based, Haemophilus influenzae
Source text: as §1, with “biological” for “antibacterial”, “of compounds of” for “of”, “present invention against Haemophilus influenzae” for “compounds”, “agar dilution method using HTM medium” for “microdilution technique”

H. influenzae H28 HEL = experiment: MIC, agar dilution, HTM medium; type: cell-based, Haemophilus influenzae
Source text: as §1, with “biological” for “antibacterial”, “of compounds of” for “of”, “present invention against Haemophilus influenzae” for “compounds”, “agar dilution method using HTM medium” for “microdilution technique”

H. influenzae H36 ODL = experiment: MIC, agar dilution, HTM medium; type: cell-based, Haemophilus influenzae
Source text: as §1, with “biological” for “antibacterial”, “of compounds of” for “of”, “present invention against Haemophilus influenzae” for “compounds”, “agar dilution method using HTM medium” for “microdilution technique”

H. influenzae QK 12/87 = experiment: MIC, agar dilution, HTM medium; type: cell-based, Haemophilus influenzae
Source text: as §1, with “biological” for “antibacterial”, “of compounds of” for “of”, “present invention against Haemophilus influenzae” for “compounds”, “agar dilution method using HTM medium” for “microdilution technique”

H. influenzae QK 50 = experiment: MIC, agar dilution, HTM medium; type: cell-based, Haemophilus influenzae
Source text: as §1, with “biological” for “antibacterial”, “of compounds of” for “of”, “present invention against Haemophilus influenzae” for “compounds”, “agar dilution method using HTM medium” for “microdilution technique”

H. influenzae Rd KW20 = experiment: MIC, agar dilution, HTM medium; type: cell-based, Haemophilus influenzae
Source text: as §1, with “biological” for “antibacterial”, “of compounds of” for “of”, “present invention against Haemophilus influenzae” for “compounds”, “agar dilution method using HTM medium” for “microdilution technique”

Compound: CC[C@H]1OC(=O)[C@H](C)C(=O)[C@H](C)[C@@H](O[C@@H]2O[C@H](C)C[C@H](N(C)C)[C@H]2O)[C@](C)(OC)C[C@@H](C)C(=O)[C@H](C)[C@H]2[C@H](SCCn3ccc(=O)[nH]c3=O)C(=O)O[C@@]21C [Compound I-6, (3S,3aR,4R,6R,8R,9R,10R,12R,15R,15aS)-15-Ethyloctahydro-8-methoxy-4,6,8,10,12,15a-hexamethyl-3-[[2-[2,4-1H,3H-pyriminedione-1-yl]ethyl]-thio]-9-[[3,4,6-trideoxy-3-(dimethylamino)-β-D-xylo-hexopyranosyl]oxy]-2H-furo[2,3-c]oxacyclotetradecin-2,5,11,13(3H,6H,12H)-tetrone]
- minimum inhibitory concentration (MIC) (S. aureus 1086): <=0.12 μg/ml
- minimum inhibitory concentration (MIC) (S. aureus 745): >16 µg/mL
- minimum inhibitory concentration (MIC) (S. aureus ATCC29213): <=0.12 μg/ml
- minimum inhibitory concentration (MIC) (E. coli ATCC25922): >16 µg/mL
- minimum inhibitory concentration (MIC) [1]: >16 µg/mL
- minimum inhibitory concentration (MIC) (St. pneumoniae 1/1): <=0.12 μg/ml
- minimum inhibitory concentration (MIC) (St. pneumoniae 1/4): <=0.12 μg/ml
- minimum inhibitory concentration (MIC) (St. pneumoniae 12288): 4 µg/mL (≈ 5.12 µM)
- minimum inhibitory concentration (MIC) (St. pneumoniae SL199T): 1 µg/mL (≈ 1.28 µM)
- MIC (H. influenzae 11): 4 µg/mL (≈ 5.12 µM)
- MIC (H. influenzae 12214): 4 µg/mL (≈ 5.12 µM)
- MIC (H. influenzae 1): 4 µg/mL (≈ 5.12 µM)
- MIC (H. influenzae 23145): 4 µg/mL (≈ 5.12 µM)
- MIC (H. influenzae 23369): 4 µg/mL (≈ 5.12 µM)
- MIC (H. influenzae 2947): 4 µg/mL (≈ 5.12 µM)
- MIC (H. influenzae 3201): 4 µg/mL (≈ 5.12 µM)
- MIC (H. influenzae 3457): 0.25 µg/mL (≈ 0.32 µM)
- MIC (H. influenzae 3640): 2 µg/mL (≈ 2.56 µM)
- MIC (H. influenzae 4139): 2 µg/mL (≈ 2.56 µM)
- MIC (H. influenzae ATCC 49247): 2 µg/mL (≈ 2.56 µM)
- MIC (H. influenzae ATCC 9334): 2 µg/mL (≈ 2.56 µM)
- MIC (H. influenzae B 1501): 2 µg/mL (≈ 2.56 µM)
- MIC (H. influenzae Christy): 2 µg/mL (≈ 2.56 µM)
- MIC (H. influenzae H13 LAH): 2 µg/mL (≈ 2.56 µM)
- MIC (H. influenzae H20 HDL): 1 µg/mL (≈ 1.28 µM)
- MIC (H. influenzae H28 HEL): 2 µg/mL (≈ 2.56 µM)
- MIC (H. influenzae H36 ODL): 4 µg/mL (≈ 5.12 µM)
- MIC (H. influenzae QK 12/87): 1 µg/mL (≈ 1.28 µM)
- MIC (H. influenzae QK 50): 2 µg/mL (≈ 2.56 µM)
- MIC (H. influenzae Rd KW20): 2 µg/mL (≈ 2.56 µM)
